Reference: patent US7074796B2 (H. Lundbeck A/S, priority 1999, dated 2006)

Assays:
[1] = target: T1, human cloned dopamine D3 receptors (Homo sapiens, UniProt P35462); test: Inhibition of the binding of [3H]Spiperone to human D3 receptors; conditions: [3H]Spiperone 0.3 nM, membranes of CHO-cells; for IC50: read-out: D3-bind. IC50; for inhibition at 0.1 µM: read-out: D3-bind. % inhibition of binding at 100 nM
T1 construct: expressed in transfected cells; host or cells: CHO cells
Procedure: Inhibition of the Binding of [^3H]Spiperone to Human D3 Receptors
By this method the inhibition by drugs of the binding [^3H]Spiperone (0.3 nM) to membranes of human cloned dopamine D3 receptors expressed in CHO-cells is determined in vitro. Method modified from MacKenzie et al. Eur. J. Pharm.-Mol. Pharm. Sec. 1994, 266, 79–85.

[2] = target: T2, human cloned dopamine D4.2 receptors (Homo sapiens, UniProt P21917, DEL265-296); test: Inhibition of the binding of [3H]YM-09151-2 to human dopamine D4 receptors; conditions: [3H]YM-09151-2 0.06 nM, membranes of CHO-cells; read-out: D4-bind. IC50
T2 construct: expressed in transfected cells; host or cells: CHO cells
T2 sequence (P21917 with tags, fused parts or gaps DEL265-296): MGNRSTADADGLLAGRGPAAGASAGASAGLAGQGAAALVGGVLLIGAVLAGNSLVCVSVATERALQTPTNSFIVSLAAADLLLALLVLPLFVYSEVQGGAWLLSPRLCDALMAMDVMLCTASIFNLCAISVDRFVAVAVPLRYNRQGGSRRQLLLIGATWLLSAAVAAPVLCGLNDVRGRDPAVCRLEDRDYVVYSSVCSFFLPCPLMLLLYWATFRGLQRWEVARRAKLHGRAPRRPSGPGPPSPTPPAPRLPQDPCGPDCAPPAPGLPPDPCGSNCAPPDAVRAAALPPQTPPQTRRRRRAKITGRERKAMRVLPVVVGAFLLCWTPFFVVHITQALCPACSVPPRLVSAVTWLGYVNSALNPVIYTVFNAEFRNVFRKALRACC
Procedure: Inhibition of the Binding of [^3H]YM-09151-2 to Human Dopamine D4 Receptors
By this method the inhibition by drugs of the binding of [^3H]YM-09151–2 (0.06 nM) to membranes of human cloned dopamine D4.2 receptors expressed in CHO-cells is determined in vitro. Method modified from NEN Life Science Products, Inc., technical data certificate PC2533-10/96.

alpha-1 receptors = test: Inhibition of binding of [3H]Prazosine to rat alpha-1 receptors; conditions: [3H]Prazosine 0.25 nM, membranes from rat brain
Procedure: Inhibition of Binding of [^3H]Prazosine to Rat Alpha-1 Receptors
By this method the inhibition by drugs of the binding of [^3H]Prazosine (0.25 nM) to alpha-1 receptors in membranes from rat brain is determined in vitro. Method modified from Hyttel et al. J. Neurochem. 1985, 44, 1615–1622.

T1 sequence (P35462 whole entry): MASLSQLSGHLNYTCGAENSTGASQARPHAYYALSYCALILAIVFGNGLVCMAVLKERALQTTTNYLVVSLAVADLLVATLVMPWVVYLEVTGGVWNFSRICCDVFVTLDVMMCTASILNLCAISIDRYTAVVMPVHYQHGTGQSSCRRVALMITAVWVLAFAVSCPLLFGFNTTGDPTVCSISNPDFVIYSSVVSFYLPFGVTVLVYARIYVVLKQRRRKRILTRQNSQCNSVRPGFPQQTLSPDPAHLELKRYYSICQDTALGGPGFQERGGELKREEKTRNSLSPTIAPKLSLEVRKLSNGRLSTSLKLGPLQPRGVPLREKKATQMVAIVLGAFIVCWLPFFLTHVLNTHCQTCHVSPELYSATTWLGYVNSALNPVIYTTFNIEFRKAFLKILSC

IC50 [1] [nM] | IC50 [2] [nM] | IC50 (alpha-1 receptors) [nM] | inhibition at 0.1 µM ([1]; 100 nM) [%] | Alpha-1 % inhibition of binding at 100 nM (alpha-1 receptors) [%] | D3-bind. % inhibition of binding at 100 nM ([1]; 100 nM) [%] | Compound
1.1 | 14 | 570 |  |  |  | Clc1cccc(N2CCN(CCCCc3c[nH]c4ccccc34)CC2)c1Cl [Compound 5b, 3-{4-[4-(2,3-Dichlorophenyl)piperazin-1-yl]butyl}-1H-indole]
 | 61 |  | 92 | 45 |  | O=C(CCCCN1CCN(c2cccc(Cl)c2Cl)CC1)N1CCc2cc(F)ccc21 [Compound 7c, 5-[4-(2,3-Dichlorophenyl)piperazin-1-yl]-1-(5-fluoro-2,3-dihydro-1H-indol-1-yl)pentan-1-one]
40 | 500 | 4800 |  |  |  | Clc1ccc2c(SCCN3CCN(c4cccc(Cl)c4Cl)CC3)c[nH]c2c1 [Compound 4, 6-Chloro-3-{2-[4-(2,3-dichlorophenyl)piperazin-1-yl]ethylsulfanyl}-1H-indole]
 | 27 | 470 | 93 |  |  | Clc1ccc2c(CCCN3CCN(c4cccc(Cl)c4Cl)CC3)c[nH]c2c1 [Compound 5e, 6-Chloro-3-{3-[4-(2,3-dichlorophenyl)piperazin-1-yl]propyl}-1H-indole]
 | 9 |  | 92 | 69 |  | O=C(CCCN1CCN(c2ccccc2F)CC1)N1CCc2ccccc2C1 [Compound 9k, 1-(3,4-Dihydro-1H-isoquinolin-2-yl)-4-[4-(2-fluoro-phenyl)-piperazin-1-yl]-butan-1-one]
 | 25 |  | 73 | 38 |  | O=C(CCN1CCN(c2cccc(Cl)c2Cl)CC1)N1CCc2cc(F)ccc21 [Compound 7a, 3-[4-(2,3-Dichlorophenyl)piperazin-1-yl]-1-(5-fluoro-2,3-dihydro-1H-indol-1-yl)propan-1-one]
100 | 3.3 | 59 |  |  |  | O=C(CCN1CCN(c2cccc(Cl)c2Cl)CC1)N1CCc2ccccc21 [Compound 1a, 3-[4-(2,3-Dichlorophenyl)piperazin-1-yl]-1-(2,3-dihydro-1H-indol-1-yl)propan-1-one]
 | 26 |  |  | 34 | 95 | 5-[4-(2,3-Dichloro-phenyl)-piperazin-1-yl]-1-(3,4-dihydro-1H-isoquinolin-2-yl)propan-1-one [Compound 7f]
1.8 | 16 | 43 |  |  |  | O=C1CCc2ccccc2N1CCCCN1CCN(c2cccc(Cl)c2Cl)CC1 [Compound 6, 1-{4-[4-(2,3-Dichlorophenyl)piperazin-1-yl]butyl}-3,4-dihydroquinolin-2(1H)-one]
6.8 | 11 |  |  | −3 |  | Clc1cccc(N2CCN(CCCCC3CCc4ccccc43)CC2)c1Cl (stereo not drawn) [Compound 3, 1-(2,3-Dichlorophenyl)-4-[4-(indan-1-yl)butyl]piperazine]
10 | 39 | 160 |  |  |  | O=C(CCCCN1CCN(c2cccc(Cl)c2Cl)CC1)N1CCc2ccccc21 [Compound 1c, 5-[4-(2,3-Dichlorophenyl)piperazin-1-yl]-1-(2,3-dihydro-1H-indol-1-yl)pentan-1-one]
3 | 2.8 | 1100 |  |  |  | O=C(CCCN1CCN(c2cccc(Cl)c2Cl)CC1)N1CCc2ccccc21 [Compound 1b, 4-[4-(2,3-Dichlorophenyl)piperazin-1-yl]-1-(2,3-dihydro-1H-indol-1-yl)butan-1-one]
 | 10 |  | 94 | 31 |  | O=C(CCCN1CCN(c2cccc(Cl)c2Cl)CC1)N1CCc2ccccc2C1 [Compound 7e]
4 | 1.2 | 31 |  |  |  | Clc1ccccc1N1CCN(CCCCN2CCc3ccccc32)CC1 [Compound 2d, 1-{4-[4-(2-Chlorophenyl)piperazin-1-yl]butyl}-2,3-dihydro-1H-indole]
50 | 2.1 | 17 |  |  |  | O=C(CCCN1CCN(c2cccc(Cl)c2)CC1)N1CCc2ccccc21 [Compound 1e, 4-[4-(3-Chlorophenyl)piperazin-1-yl]-1-(2,3-dihydro-1H-indol-1-yl)butan-1-one]
22 | 18 | 190 |  |  |  | Clc1cccc(N2CCN(CCCCCN3CCc4ccccc43)CC2)c1Cl [Compound 2c, 1-{5-[4-(2,3-Dichlorophenyl)piperazin-1-yl]pentyl}-2,3-dihydro-1H-indole]
 | 4 |  | 88 | 74 |  | O=C(CCCN1CCN(c2ccccc2Cl)CC1)N1CCc2ccccc2C1 [Compound 8l, 4-[4-(2-Chlorophenyl)piperazin-1-yl]-1-(3,4-dihydro-1H-isoquinolin-2-yl)-butan-1-one]
 | 53 |  | 65 | 6 |  | O=C(CCCN1CCN(c2cccc(Cl)c2Cl)CC1)N1CCc2cc(F)ccc21 [Compound 7b, 4-[4-(2,3-Dichlorophenyl)piperazin-1-yl]-1-(5-fluoro-2,3-dihydro-1H-indol-1-yl)butan-1-one]
 | 8 |  | 73 | 92 |  | O=C(CCN1CCN(c2ccccc2Cl)CC1)N1CCc2ccccc2C1 [Compound 8k, 3-[4-(2-Chlorophenyl)piperazin-1-yl]-1-(3,4-dihydro-1H-isoquinolin-2-yl)-propan-1-one]
1 | 8.6 | 720 |  |  |  | Fc1ccc2[nH]cc(CCCCN3CCN(c4cccc(Cl)c4Cl)CC3)c2c1 [Compound 5d, 3-{4-[4-(2,3-Dichlorophenyl)piperazin-1-yl]butyl}-5-fluoro-1H-indole]
6.8 | 3.9 | 960 |  |  |  | Fc1ccc2[nH]cc(CCCN3CCN(c4cccc(Cl)c4Cl)CC3)c2c1 [Compound 5c, 3-{3-[4-(2,3-Dichlorophenyl)piperazin-1-yl]propyl}-5-fluoro-1H-indole]
 | 6 |  | 85 | 44 |  | O=C(CCN1CCN(c2cccc(Cl)c2Cl)CC1)N1CCc2ccccc2C1 [Compound 7d, 3-[4-(2,3-Dichlorophenyl)piperazin-1-yl]-1-(3,4-dihydro-1H-isoquinolin-2-yl)-propan-1-one]
3.1 | 12 |  |  | 10 |  | Clc1cccc(N2CCN(CCCCN3CCc4ccccc43)CC2)c1Cl [Compound 2b, 1-{4-[4-(2,3-Dichlorophenyl)piperazin-1-yl]butyl}-2,3-dihydro-1H-indole]
20 | 0.92 | 97 |  |  |  | O=C(CCCN1CCN(c2ccccc2Cl)CC1)N1CCc2ccccc21 [Compound 1d, 4-[4-(2-Chlorophenyl)piperazin-1-yl]-1-(2,3-dihydro-1H-indol-1-yl)butan-1-one]
31 | 1.8 | 68 |  |  |  | Clc1cccc(N2CCN(CCCN3CCc4ccccc43)CC2)c1Cl [Compound 2a, 1-{3-[4-(2,3-Dichlorophenyl)piperazin-1-yl]propyl}-2,3-dihydro-1H-indole]

Compound | IC50 [1] [nM] | IC50 [2] [nM] | IC50 (alpha-1 receptors) [nM] | inhibition at 0.1 µM ([1]; 100 nM) [%] | Alpha-1 % inhibition of binding at 100 nM (alpha-1 receptors) [%] | D3-bind. % inhibition of binding at 100 nM ([1]; 100 nM) [%]
Clc1cccc(N2CCN(CCCc3c[nH]c4ccccc34)CC2)c1Cl [Compound 5a, 3-{3-[4-(2,3-Dichlorophenyl)piperazin-1-yl]propyl}-1H-indole] | 2.8 | 2.2 | 410 |  |  | 
